Test results from ChEMBL document CHEMBL4507282, “Data for DCP probe BI-1950” (2021).

Legend:
[1] = test system: Tyrosine-protein kinase ABL1 (Homo sapiens), P00519 [Q252H]; details: Compound concentration 1000.0 nM
[2] = molecular target: Tyrosine-protein kinase ABL1 (Homo sapiens) (UniProt P00519); details: Compound concentration 1000.0 nM
[3] = molecular target: ALK tyrosine kinase receptor (Homo sapiens) (UniProt Q9UM73); details: Compound concentration 1000.0 nM
[4] = test system: ALK tyrosine kinase receptor (Homo sapiens), Q9UM73 [C1156Y]; details: Compound concentration 1000.0 nM
[5] = molecular target: Bone morphogenetic protein receptor type-1A (Homo sapiens) (UniProt P36894); details: Compound concentration 1000.0 nM
[6] = molecular target: Serine/threonine-protein kinase BRSK1 (Homo sapiens) (UniProt Q8TDC3); details: Compound concentration 1000.0 nM
Sequence of Serine/threonine-protein kinase BRSK1 (Homo sapiens) (Q8TDC3 whole entry): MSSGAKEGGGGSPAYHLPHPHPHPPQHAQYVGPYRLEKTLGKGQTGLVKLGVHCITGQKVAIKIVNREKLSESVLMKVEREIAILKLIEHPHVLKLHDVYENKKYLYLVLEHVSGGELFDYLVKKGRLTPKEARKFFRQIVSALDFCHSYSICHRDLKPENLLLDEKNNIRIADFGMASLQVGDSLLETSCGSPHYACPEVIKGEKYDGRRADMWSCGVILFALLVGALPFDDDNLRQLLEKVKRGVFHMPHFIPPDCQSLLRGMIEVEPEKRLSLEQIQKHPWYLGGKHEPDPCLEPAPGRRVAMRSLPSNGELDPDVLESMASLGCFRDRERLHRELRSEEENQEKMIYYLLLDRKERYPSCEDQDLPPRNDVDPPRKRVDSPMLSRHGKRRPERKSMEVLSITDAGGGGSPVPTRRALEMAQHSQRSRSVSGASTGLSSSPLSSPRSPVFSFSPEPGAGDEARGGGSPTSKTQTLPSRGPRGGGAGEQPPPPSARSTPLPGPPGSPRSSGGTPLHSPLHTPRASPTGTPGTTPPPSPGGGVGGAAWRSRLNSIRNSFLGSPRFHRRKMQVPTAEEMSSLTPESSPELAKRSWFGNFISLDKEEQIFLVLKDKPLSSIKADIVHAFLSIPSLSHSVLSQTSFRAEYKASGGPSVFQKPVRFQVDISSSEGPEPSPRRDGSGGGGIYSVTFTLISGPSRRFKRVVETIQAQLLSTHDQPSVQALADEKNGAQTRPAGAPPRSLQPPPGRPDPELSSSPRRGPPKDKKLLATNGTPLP

[7] = molecular target: Cyclin-dependent kinase 4 (Homo sapiens) (UniProt P11802); details: Compound concentration 1000.0 nM
[8] = molecular target: Dual specificity protein kinase CLK3 (Homo sapiens) (UniProt P49761); details: Compound concentration 1000.0 nM
[9] = molecular target: Dual specificity tyrosine-phosphorylation-regulated kinase 2 (Homo sapiens) (UniProt Q92630); details: Compound concentration 1000.0 nM
[10] = test system: Epidermal growth factor receptor (Homo sapiens), P00533 [L858R,T790M]; details: Compound concentration 1000.0 nM
[11] = molecular target: Tyrosine-protein kinase Fgr (Homo sapiens) (UniProt P09769); details: Compound concentration 1000.0 nM
[12] = molecular target: Interleukin-1 receptor-associated kinase 4 (Homo sapiens) (UniProt Q9NWZ3); details: Compound concentration 1000.0 nM
[13] = molecular target: Tyrosine-protein kinase JAK1 (Homo sapiens) (UniProt P23458); details: Compound concentration 1000.0 nM
[14] = test system: Mast/stem cell growth factor receptor Kit (Homo sapiens), P10721 [D816V]; details: Compound concentration 1000.0 nM
[15] = molecular target: Tyrosine-protein kinase Mer (Homo sapiens) (UniProt Q12866); details: Compound concentration 1000.0 nM
Sequence of Tyrosine-protein kinase Mer (Homo sapiens) (Q12866 whole entry): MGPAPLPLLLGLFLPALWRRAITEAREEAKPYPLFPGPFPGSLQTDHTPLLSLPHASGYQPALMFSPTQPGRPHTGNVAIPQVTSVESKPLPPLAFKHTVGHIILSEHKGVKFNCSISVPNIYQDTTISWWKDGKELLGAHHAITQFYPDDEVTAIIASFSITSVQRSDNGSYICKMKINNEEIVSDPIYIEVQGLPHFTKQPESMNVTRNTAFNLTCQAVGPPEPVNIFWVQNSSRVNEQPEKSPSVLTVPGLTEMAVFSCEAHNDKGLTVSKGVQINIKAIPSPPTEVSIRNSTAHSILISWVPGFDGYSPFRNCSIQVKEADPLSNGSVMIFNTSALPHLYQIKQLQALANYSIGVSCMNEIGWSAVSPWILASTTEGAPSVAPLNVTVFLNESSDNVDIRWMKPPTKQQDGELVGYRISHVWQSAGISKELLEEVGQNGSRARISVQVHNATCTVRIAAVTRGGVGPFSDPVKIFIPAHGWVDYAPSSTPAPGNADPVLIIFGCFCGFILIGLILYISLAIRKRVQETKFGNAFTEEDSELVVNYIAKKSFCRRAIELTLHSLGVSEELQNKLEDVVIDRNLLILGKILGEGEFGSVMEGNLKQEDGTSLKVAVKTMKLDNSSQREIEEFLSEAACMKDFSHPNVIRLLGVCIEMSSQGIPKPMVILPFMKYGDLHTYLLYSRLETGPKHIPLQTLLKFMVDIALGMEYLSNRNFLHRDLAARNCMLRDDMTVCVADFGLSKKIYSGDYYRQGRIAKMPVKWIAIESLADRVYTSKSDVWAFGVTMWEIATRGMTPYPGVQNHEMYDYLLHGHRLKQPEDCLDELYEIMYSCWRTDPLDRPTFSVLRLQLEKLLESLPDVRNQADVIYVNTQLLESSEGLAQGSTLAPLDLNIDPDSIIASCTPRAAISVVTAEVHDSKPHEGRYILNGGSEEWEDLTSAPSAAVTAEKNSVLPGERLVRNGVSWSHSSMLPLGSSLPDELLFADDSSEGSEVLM

[16] = test system: Hepatocyte growth factor receptor (Homo sapiens), P08581 [M1250T]; details: Compound concentration 1000.0 nM
[17] = test system: Hepatocyte growth factor receptor (Homo sapiens), P08581 [Y1235D]; details: Compound concentration 1000.0 nM
[18] = molecular target: Mitogen-activated protein kinase kinase kinase 10 (Homo sapiens) (UniProt Q02779); details: Compound concentration 1000.0 nM
[19] = molecular target: Myosin light chain kinase 2, skeletal/cardiac muscle (Homo sapiens) (UniProt Q9H1R3); details: Compound concentration 1000.0 nM
[20] = molecular target: Myosin-IIIb (Homo sapiens) (UniProt Q8WXR4); details: Compound concentration 1000.0 nM
[21] = molecular target: Serine/threonine-protein kinase Nek1 (Homo sapiens) (UniProt Q96PY6); details: Compound concentration 1000.0 nM
[22] = molecular target: Serine/threonine-protein kinase Nek9 (Homo sapiens) (UniProt Q8TD19); details: Compound concentration 1000.0 nM
[23] = molecular target: Serine/threonine-protein kinase PAK 4 (Homo sapiens) (UniProt O96013); details: Compound concentration 1000.0 nM
[24] = molecular target: Serine/threonine-protein kinase PAK 6 (Homo sapiens) (UniProt Q9NQU5); details: Compound concentration 1000.0 nM
[25] = molecular target: Cyclin-dependent kinase 18 (Homo sapiens) (UniProt Q07002); details: Compound concentration 1000.0 nM
[26] = test system: Phosphatidylinositol 4,5-bisphosphate 3-kinase catalytic subunit alpha isoform (Homo sapiens), P42336 [M1043I]; details: Compound concentration 1000.0 nM
Sequence of Phosphatidylinositol 4,5-bisphosphate 3-kinase catalytic subunit alpha isoform (Homo sapiens), P42336 [M1043I] (P42336 whole entry M1043I, canonical isoform): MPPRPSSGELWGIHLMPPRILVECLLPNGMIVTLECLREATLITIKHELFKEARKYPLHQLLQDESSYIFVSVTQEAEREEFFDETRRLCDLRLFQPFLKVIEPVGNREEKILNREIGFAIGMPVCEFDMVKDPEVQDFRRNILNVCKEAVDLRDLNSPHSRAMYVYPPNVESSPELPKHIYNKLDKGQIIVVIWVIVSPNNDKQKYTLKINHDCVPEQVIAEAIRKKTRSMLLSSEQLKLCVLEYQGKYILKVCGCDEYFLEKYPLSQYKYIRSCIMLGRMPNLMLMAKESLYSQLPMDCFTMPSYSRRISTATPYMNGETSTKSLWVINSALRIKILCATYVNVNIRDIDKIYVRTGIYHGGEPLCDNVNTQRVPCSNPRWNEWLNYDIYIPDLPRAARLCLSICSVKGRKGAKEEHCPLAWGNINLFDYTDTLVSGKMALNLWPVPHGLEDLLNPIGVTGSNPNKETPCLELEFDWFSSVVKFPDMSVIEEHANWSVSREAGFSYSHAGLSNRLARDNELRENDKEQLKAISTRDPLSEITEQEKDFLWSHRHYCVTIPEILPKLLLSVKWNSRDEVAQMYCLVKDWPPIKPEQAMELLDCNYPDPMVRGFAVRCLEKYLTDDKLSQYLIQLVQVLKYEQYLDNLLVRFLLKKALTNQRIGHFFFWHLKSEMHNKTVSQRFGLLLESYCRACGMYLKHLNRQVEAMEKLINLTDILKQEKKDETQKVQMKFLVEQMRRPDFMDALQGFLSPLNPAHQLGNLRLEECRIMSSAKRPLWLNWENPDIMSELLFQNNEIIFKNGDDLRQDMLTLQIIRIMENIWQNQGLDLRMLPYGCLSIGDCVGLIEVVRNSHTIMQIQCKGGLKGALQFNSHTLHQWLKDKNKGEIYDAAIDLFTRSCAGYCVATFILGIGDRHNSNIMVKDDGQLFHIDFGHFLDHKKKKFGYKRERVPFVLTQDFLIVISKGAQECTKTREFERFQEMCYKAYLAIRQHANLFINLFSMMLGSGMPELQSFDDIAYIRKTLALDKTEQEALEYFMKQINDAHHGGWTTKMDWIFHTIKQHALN

[27] = molecular target: 1-phosphatidylinositol 3-phosphate 5-kinase (Homo sapiens) (UniProt Q9Y2I7); details: Compound concentration 1000.0 nM
[28] = molecular target: Serine/threonine-protein kinase N1 (Homo sapiens) (UniProt Q16512); details: Compound concentration 1000.0 nM
[29] = molecular target: Serine/threonine-protein kinase D1 (Homo sapiens) (UniProt Q15139); details: Compound concentration 1000.0 nM
[30] = molecular target: Serine/threonine-protein kinase D3 (Homo sapiens) (UniProt O94806); details: Compound concentration 1000.0 nM
Sequence of Serine/threonine-protein kinase D3 (Homo sapiens) (O94806 whole entry): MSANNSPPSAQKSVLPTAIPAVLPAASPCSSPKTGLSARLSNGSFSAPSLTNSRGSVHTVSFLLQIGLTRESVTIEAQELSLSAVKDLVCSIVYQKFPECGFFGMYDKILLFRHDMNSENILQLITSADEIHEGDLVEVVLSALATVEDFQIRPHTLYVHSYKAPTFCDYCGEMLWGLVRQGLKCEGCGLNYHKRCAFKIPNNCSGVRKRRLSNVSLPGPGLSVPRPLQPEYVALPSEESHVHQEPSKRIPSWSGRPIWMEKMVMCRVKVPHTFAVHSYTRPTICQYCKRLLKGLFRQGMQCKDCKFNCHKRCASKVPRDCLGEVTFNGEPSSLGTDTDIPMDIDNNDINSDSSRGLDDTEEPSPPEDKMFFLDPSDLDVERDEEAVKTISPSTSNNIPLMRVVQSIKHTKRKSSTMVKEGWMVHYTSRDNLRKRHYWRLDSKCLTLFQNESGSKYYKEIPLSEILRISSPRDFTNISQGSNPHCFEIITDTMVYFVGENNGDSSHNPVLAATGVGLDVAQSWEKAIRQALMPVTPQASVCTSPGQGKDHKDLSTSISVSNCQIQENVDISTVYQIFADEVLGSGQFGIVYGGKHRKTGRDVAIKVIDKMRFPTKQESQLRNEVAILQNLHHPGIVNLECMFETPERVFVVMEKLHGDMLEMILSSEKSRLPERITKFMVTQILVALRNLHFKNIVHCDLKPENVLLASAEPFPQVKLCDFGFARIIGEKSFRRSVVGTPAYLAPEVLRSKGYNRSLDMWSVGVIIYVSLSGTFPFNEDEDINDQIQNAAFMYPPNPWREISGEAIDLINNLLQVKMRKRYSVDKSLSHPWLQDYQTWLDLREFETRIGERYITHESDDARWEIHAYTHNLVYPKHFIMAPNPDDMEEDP

[31] = molecular target: Protein-tyrosine kinase 2-beta (Homo sapiens) (UniProt Q14289); details: Compound concentration 1000.0 nM
[32] = molecular target: Ribosomal protein S6 kinase alpha-2 (Homo sapiens) (UniProt Q15349); details: Compound concentration 1000.0 nM
[33] = molecular target: Ribosomal protein S6 kinase alpha-6 (Homo sapiens) (UniProt Q9UK32); details: Compound concentration 1000.0 nM
[34] = molecular target: Proto-oncogene tyrosine-protein kinase Src (Homo sapiens) (UniProt P12931); details: Compound concentration 1000.0 nM
Sequence of Proto-oncogene tyrosine-protein kinase Src (Homo sapiens) (P12931 2-536 limits assumed): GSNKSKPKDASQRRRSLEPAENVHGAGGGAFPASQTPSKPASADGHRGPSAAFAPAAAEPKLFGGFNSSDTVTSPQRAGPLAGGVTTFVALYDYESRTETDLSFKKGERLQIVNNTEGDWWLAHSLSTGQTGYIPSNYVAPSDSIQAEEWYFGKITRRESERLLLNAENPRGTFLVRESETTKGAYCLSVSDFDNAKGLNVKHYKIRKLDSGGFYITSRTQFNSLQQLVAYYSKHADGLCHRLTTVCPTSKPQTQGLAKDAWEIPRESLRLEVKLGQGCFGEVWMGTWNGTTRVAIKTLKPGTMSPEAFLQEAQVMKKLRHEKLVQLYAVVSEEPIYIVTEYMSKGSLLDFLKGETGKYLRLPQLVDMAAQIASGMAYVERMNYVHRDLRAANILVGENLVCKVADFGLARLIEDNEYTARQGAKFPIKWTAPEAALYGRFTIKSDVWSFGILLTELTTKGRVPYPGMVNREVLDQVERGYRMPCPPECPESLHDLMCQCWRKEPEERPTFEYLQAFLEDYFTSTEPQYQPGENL

[35] = molecular target: TGF-beta receptor type-1 (Homo sapiens) (UniProt P36897); details: Compound concentration 1000.0 nM
[36] = molecular target: Serine/threonine-protein kinase 32A (Homo sapiens) (UniProt Q8WU08); details: Compound concentration 1000.0 nM
Sequence of Serine/threonine-protein kinase 32A (Homo sapiens) (Q8WU08 whole entry): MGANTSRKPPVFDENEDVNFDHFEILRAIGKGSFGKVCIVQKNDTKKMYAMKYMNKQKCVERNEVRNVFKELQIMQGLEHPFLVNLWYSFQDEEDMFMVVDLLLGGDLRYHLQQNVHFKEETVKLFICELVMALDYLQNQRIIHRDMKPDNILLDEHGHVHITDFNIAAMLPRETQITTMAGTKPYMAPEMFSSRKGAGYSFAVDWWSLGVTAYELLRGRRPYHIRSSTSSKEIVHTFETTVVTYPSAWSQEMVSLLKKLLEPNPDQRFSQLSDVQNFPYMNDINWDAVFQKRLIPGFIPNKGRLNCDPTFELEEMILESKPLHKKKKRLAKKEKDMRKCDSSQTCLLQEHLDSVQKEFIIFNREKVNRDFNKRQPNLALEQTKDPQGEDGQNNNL

[37] = molecular target: 5-hydroxytryptamine receptor 1B (Homo sapiens) (UniProt P28222); details: Compound concentration 10.0 uM
Sequence of 5-hydroxytryptamine receptor 1B (Homo sapiens) (P28222 whole entry): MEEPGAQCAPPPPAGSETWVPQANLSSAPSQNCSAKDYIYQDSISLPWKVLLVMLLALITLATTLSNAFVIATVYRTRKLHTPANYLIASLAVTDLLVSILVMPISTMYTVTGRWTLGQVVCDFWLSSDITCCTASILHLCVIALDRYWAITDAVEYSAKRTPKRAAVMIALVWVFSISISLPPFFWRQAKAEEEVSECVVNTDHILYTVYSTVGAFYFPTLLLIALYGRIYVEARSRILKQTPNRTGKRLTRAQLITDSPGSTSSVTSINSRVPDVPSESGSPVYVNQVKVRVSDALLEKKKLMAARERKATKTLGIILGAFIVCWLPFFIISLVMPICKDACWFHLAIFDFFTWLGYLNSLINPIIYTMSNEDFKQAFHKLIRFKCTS

[38] = molecular target: 5-hydroxytryptamine receptor 2C (Homo sapiens) (UniProt P28335); details: Compound concentration 10.0 uM
[39] = molecular target: T1, 5-hydroxytryptamine receptor 3A (Homo sapiens) (UniProt P46098); details: Compound concentration 10.0 uM
T1 sequence (whole entry): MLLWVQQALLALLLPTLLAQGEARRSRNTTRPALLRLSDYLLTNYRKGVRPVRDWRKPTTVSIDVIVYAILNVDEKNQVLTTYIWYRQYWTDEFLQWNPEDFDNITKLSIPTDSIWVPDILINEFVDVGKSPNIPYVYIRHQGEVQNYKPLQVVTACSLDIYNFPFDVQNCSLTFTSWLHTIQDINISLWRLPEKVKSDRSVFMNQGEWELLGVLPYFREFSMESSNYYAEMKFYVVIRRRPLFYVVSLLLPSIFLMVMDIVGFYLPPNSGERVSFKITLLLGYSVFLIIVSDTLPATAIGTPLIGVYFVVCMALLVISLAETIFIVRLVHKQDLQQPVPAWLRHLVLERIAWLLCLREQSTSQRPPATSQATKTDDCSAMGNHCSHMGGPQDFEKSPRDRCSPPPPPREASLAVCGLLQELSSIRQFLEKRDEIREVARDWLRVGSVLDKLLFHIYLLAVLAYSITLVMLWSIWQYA

Q: For `C[C@H](NC(=O)c1cnc2n1[C@](C)(Cc1ccc(C#N)cc1)C(=O)N2c1cc(Cl)c(F)c(Cl)c1)C(=O)NC1(c2ccccn2)CC1` [BI 1950], which residual activity [1] is on record?
A: 100%

Q: And the residual activity [2]?
A: 100%

Q: And the residual activity [3]?
A: 100%

Q: And the residual activity [4]?
A: 100%

Q: And the residual activity [5]?
A: 98%

Q: What about the residual activity [6] of the same compound?
A: 100%

Q: And the residual activity [7]?
A: 100%

Q: What about the residual activity [8] of the same compound?
A: 96%

Q: What about the residual activity [9] of the same compound?
A: 98%

Q: And the residual activity [10]?
A: 82%

Q: And the residual activity [11]?
A: 100%

Q: What about the residual activity [12] of the same compound?
A: 100%

Q: What about the residual activity [13] of the same compound?
A: 100%

Q: What about the residual activity [14] of the same compound?
A: 100%

Q: And the residual activity [15]?
A: 99%

Q: And the residual activity [16]?
A: 100%

Q: And the residual activity [17]?
A: 100%

Q: And the residual activity [18]?
A: 100%

Q: And the residual activity [19]?
A: 98%

Q: And the residual activity [20]?
A: 100%

Q: What about the residual activity [21] of the same compound?
A: 59%

Q: And the residual activity [22]?
A: 100%

Q: And the residual activity [23]?
A: 100%

Q: What about the residual activity [24] of the same compound?
A: 96%

Q: And the residual activity [25]?
A: 100%

Q: And the residual activity [26]?
A: 100%

Q: And the residual activity [27]?
A: 100%

Q: And the residual activity [28]?
A: 100%

Q: What about the residual activity [29] of the same compound?
A: 100%

Q: And the residual activity [30]?
A: 100%

Q: And the residual activity [31]?
A: 100%

Q: And the residual activity [32]?
A: 100%

Q: What about the residual activity [33] of the same compound?
A: 100%

Q: And the residual activity [34]?
A: 100%

Q: What about the residual activity [35] of the same compound?
A: 82%

Q: And the residual activity [36]?
A: 83%

Q: And the inhibition [37]?
A: 16.5%

Q: And the inhibition [38]?
A: 24.3%

Q: And the inhibition [39]?
A: -2.51%

Q: For `C[C@@]1(Cc2ccc(C#N)cc2)C(=O)N(c2cc(Cl)cc(Cl)c2)c2ncc(C(=O)NC3(c4nc(C5CCC5)no4)CC3)n21` [BI 9446], which residual activity [1] is on record?
A: 100%

Q: What about the residual activity [2] of the same compound?
A: 100%

Q: What about the residual activity [3] of the same compound?
A: 100%

Q: And the residual activity [4]?
A: 100%

Q: And the residual activity [5]?
A: 100%

Q: What about the residual activity [6] of the same compound?
A: 100%

Q: What about the residual activity [7] of the same compound?
A: 100%

Q: What about the residual activity [8] of the same compound?
A: 100%

Q: And the residual activity [9]?
A: 93%

Q: What about the residual activity [10] of the same compound?
A: 79%

Q: And the residual activity [11]?
A: 100%

Q: What about the residual activity [12] of the same compound?
A: 100%

Q: And the residual activity [13]?
A: 100%

Q: What about the residual activity [14] of the same compound?
A: 100%

Q: And the residual activity [15]?
A: 100%

Q: What about the residual activity [16] of the same compound?
A: 100%

Q: And the residual activity [17]?
A: 100%

Q: And the residual activity [18]?
A: 100%

Q: And the residual activity [19]?
A: 100%

Q: What about the residual activity [20] of the same compound?
A: 99%

Q: And the residual activity [21]?
A: 48%

Q: And the residual activity [22]?
A: 86%

Q: What about the residual activity [23] of the same compound?
A: 98%

Q: And the residual activity [24]?
A: 100%

Q: And the residual activity [25]?
A: 100%

Q: And the residual activity [26]?
A: 100%

Q: And the residual activity [27]?
A: 100%

Q: What about the residual activity [28] of the same compound?
A: 100%

Q: What about the residual activity [29] of the same compound?
A: 86%

Q: What about the residual activity [30] of the same compound?
A: 87%

Q: What about the residual activity [31] of the same compound?
A: 100%

Q: And the residual activity [32]?
A: 100%

Q: What about the residual activity [33] of the same compound?
A: 100%

Q: What about the residual activity [34] of the same compound?
A: 98%

Q: What about the residual activity [35] of the same compound?
A: 100%

Q: And the residual activity [36]?
A: 100%

Q: What about the inhibition [37] of the same compound?
A: 17.5%

Q: What about the inhibition [38] of the same compound?
A: 32.9%

Q: What about the inhibition [39] of the same compound?
A: 17.9%
